This is an account of results in ChEMBL document CHEMBL1129860, “Studies on penam sulfones III. Synthesis and -lactamase inhibitory activity of sodium (6R)-6-(-hydroxybenzyl)-2-methoxyiminomethyl-2-methylpenam-3-carboxylate 1,1-dioxide and sodium 2-acyl-2-methylpenam-3-carboxylate 1,1-dioxide” (1997).

The test system of experiment [1] is Pseudomonas aeruginosa. The experiment can be described thus: microbe, parasite or virus in culture.
The test system of experiment [2] is Enterobacter cloacae. The experiment is described as follows: In vitro minimal inhibitory concentration (MIC) of compound in combination with Ceftazidime (CAZ) showed synergic activity against Enterobacter cloacae S-65. It is filed as functional.
The test system of experiment [3] is Pseudomonas aeruginosa. The experiment can be described thus: microbe, parasite or virus in culture. The source holds these as a separate data set.
For experiment [4], the system named is Klebsiella aerogenes. The experiment can be described thus: In vitro minimal inhibitory concentration (MIC) of compound in combination with Ceftazidime (CAZ) showed synergic activity against Enterobacter aerogenes S-97. In kind it is functional.
Experiment [5] concerns Enterobacter cloacae. The experiment is described as follows: In vitro minimal inhibitory concentration (MIC) of compound in combination with Ceftazidime (CAZ) showed synergic activity against Enterobacter cloacae S-11. It is filed as functional.
Experiment [6] deals with Morganella morganii. The experiment is described as follows: In vitro minimal inhibitory concentration (MIC) of compound in combination with Ceftazidime (CAZ) showed synergic activity against Morganella morganii 36030. In kind it is functional.
For experiment [7], the system named is Morganella morganii. The experiment can be described thus: In vitro minimal inhibitory concentration (MIC) of compound in combination with Ceftazidime (CAZ) showed synergic activity against Morganella morganii 36014. In kind it is functional. As to conditions: Morganella morganii; read-out: MIC.
In experiment [8] the test system is Klebsiella aerogenes. The experiment is described as follows: In vitro minimal inhibitory concentration (MIC) of compound in combination with piperacillin (PIPC) showed synergic activity against Enterobacter aerogenes 41004. It is filed as functional.
Experiment [9] relates to Escherichia coli. The experiment is described as follows: In vitro minimal inhibitory concentration (MIC) of compound in combination with piperacillin (PIPC) showed synergic activity against Escherichia coli OXA 3. In kind it is functional.
For the next experiment, the system named is Serratia marcescens. The experiment can be described thus: In vitro minimal inhibitory concentration (MIC) of compound in combination with piperacillin (PIPC) showed synergic activity against Serratia marcescens 200 L. In kind it is functional.
In experiment [10] the test system is Citrobacter freundii. The experiment can be described thus: In vitro minimal inhibitory concentration (MIC) of compound in combination with piperacillin (PIPC) showed synergic activity against Citrobacter freundii 2046E. In kind it is functional.
The subject of experiment [11] is Klebsiella aerogenes. The experiment is described as follows: In vitro minimal inhibitory concentration (MIC) of compound in combination with piperacillin (PIPC) showed synergic activity against Enterobacter aerogenes 41006. In kind it is functional.
Experiment [12] relates to Escherichia coli. The experiment is described as follows: In vitro minimal inhibitory concentration (MIC) of compound in combination with piperacillin (PIPC) showed synergic activity against Escherichia coli TEM 3. It is filed as functional.
Experiment [13] relates to Proteus vulgaris. The experiment is described as follows: In vitro minimal inhibitory concentration (MIC) of compound in combination with piperacillin (PIPC) showed synergic activity against Proteus vulgaris CT 106. In kind it is functional.
Experiment [14] concerns Enterobacter cloacae. The experiment can be described thus: In vitro minimal inhibitory concentration (MIC) of compound in combination with piperacillin (PIPC) showed synergic activity against Enterobacter cloacae 40011. In kind it is functional.
Experiment [15] relates to Staphylococcus aureus. The experiment can be described thus: In vitro minimal inhibitory concentration (MIC) of compound in combination with piperacillin (PIPC) showed synergic activity against Staphylococcus aureus 80K. In kind it is functional.
Experiment [16] has as its system Escherichia coli. The experiment can be described thus: In vitro minimal inhibitory concentration (MIC) of compound in combination with piperacillin (PIPC) showed synergic activity against Escherichia coli SHV 1. In kind it is functional.
Experiment [17] relates to Morganella morganii. The experiment can be described thus: In vitro minimal inhibitory concentration (MIC) of compound in combination with piperacillin (PIPC) showed synergic activity against Morganella morganii 36014. It is filed as functional.
Experiment [18] concerns Enterobacter cloacae. The experiment is described as follows: In vitro minimal inhibitory concentration (MIC) of compound in combination with piperacillin (PIPC) showed synergic activity against Enterobacter cloacae P99. It is filed as functional.
Experiment [19] relates to Klebsiella pneumoniae. The experiment is described as follows: In vitro minimal inhibitory concentration (MIC) of compound in combination with piperacillin (PIPC) showed synergic activity against Klebsiella pneumoniae CTX 1. It is filed as functional.
Experiment [20] concerns Staphylococcus aureus. The experiment can be described thus: In vitro minimal inhibitory concentration (MIC) of compound in combination with piperacillin (PIPC) showed synergic activity against Staphylococcus aureus 54K. It is filed as functional.
The subject of experiment [21] is Citrobacter freundii. The experiment can be described thus: In vitro minimal inhibitory concentration (MIC) of compound in combination with piperacillin (PIPC) showed synergic activity against Citrobacter freundii 44032. It is filed as functional.
Experiment [22] relates to Escherichia coli. The experiment can be described thus: In vitro minimal inhibitory concentration (MIC) of compound in combination with piperacillin (PIPC) showed synergic activity against Escherichia coli TEM 7. In kind it is functional.
Experiment [23] deals with Escherichia coli. The experiment can be described thus: In vitro minimal inhibitory concentration (MIC) of compound in combination with piperacillin (PIPC) showed synergic activity against Escherichia coli SHV 5. It is filed as functional.
The test system of experiment [24] is Enterobacter cloacae. The experiment can be described thus: In vitro minimal inhibitory concentration (MIC) of compound in combination with piperacillin (PIPC) showed synergic activity against Enterobacter cloacae 40015. In kind it is functional.
Experiment [25] deals with Escherichia coli. The experiment is described as follows: In vitro minimal inhibitory concentration (MIC) of compound in combination with piperacillin (PIPC) showed synergic activity against Escherichia coli OXA 1. It is filed as functional.
Experiment [26] relates to Pseudomonas aeruginosa. The experiment can be described thus: In vitro minimal inhibitory concentration (MIC) of compound in combination with piperacillin (PIPC) showed synergic activity against Pseudomonas aeruginosa 46220 (DR-2). In kind it is functional.
Experiment [27] concerns Klebsiella aerogenes. The experiment can be described thus: In vitro minimal inhibitory concentration (MIC) of compound in combination with piperacillin (PIPC) showed synergic activity against Enterobacter aerogenes 41003. It is filed as functional.
Experiment [28] relates to Morganella morganii. The experiment can be described thus: In vitro minimal inhibitory concentration (MIC) of compound against Morganella morganii 36030. It is filed as functional.
Experiment [29] relates to Enterobacter cloacae. The experiment can be described thus: In vitro minimal inhibitory concentration (MIC) of compound against Enterobacter cloacae P99. It is filed as functional.
In experiment [30] the test system is Morganella morganii. The experiment can be described thus: In vitro minimal inhibitory concentration (MIC) of compound against Morganella morganii 36014. It is filed as functional.
For experiment [31], the system named is Enterobacter cloacae. The experiment is described as follows: In vitro minimal inhibitory concentration (MIC) of compound against Enterobacter cloacae S-65. It is filed as functional.
Experiment [32] relates to Citrobacter freundii. The experiment can be described thus: In vitro minimal inhibitory concentration (MIC) of compound against Citrobacter freundii 44032. It is filed as functional.
The subject of experiment [33] is Klebsiella aerogenes. The experiment can be described thus: In vitro minimal inhibitory concentration (MIC) of compound against Enterobacter aerogenes S-97. In kind it is functional.
Experiment [34] relates to Klebsiella aerogenes. The experiment can be described thus: In vitro minimal inhibitory concentration (MIC) of compound against Enterobacter aerogenes 41006. It is filed as functional.
Experiment [35] relates to Enterobacter cloacae. The experiment can be described thus: In vitro minimal inhibitory concentration (MIC) of compound against Enterobacter cloacae S-11. It is filed as functional.
In experiment [36] the test system is Escherichia coli. The experiment can be described thus: In vitro minimal inhibitory concentration (MIC) of compound against Escherichia coli TEM 7. In kind it is functional.
In experiment [37] the test system is Pseudomonas aeruginosa. The experiment can be described thus: In vitro minimal inhibitory concentration (MIC) of compound against Pseudomonas aeruginosa 46220 (DR-2). In kind it is functional.
Experiment [38] deals with Pseudomonas aeruginosa. The experiment can be described thus: In vitro minimal inhibitory concentration (MIC) of compound against Pseudomonas aeruginosa CT-137. In kind it is functional.
The test system of experiment [39] is Pseudomonas aeruginosa. The experiment can be described thus: In vitro minimal inhibitory concentration (MIC) of compound against Pseudomonas aeruginosa CT-122. It is filed as functional.
In experiment [40] the test system is Enterobacter cloacae. The experiment can be described thus: In vitro minimal inhibitory concentration (MIC) of compound against Enterobacter cloacae 40011. It is filed as functional.
For experiment [41], the system named is Citrobacter freundii. The experiment can be described thus: In vitro minimal inhibitory concentration (MIC) of compound against Citrobacter freundii CT 76. In kind it is functional.
The subject of experiment [42] is Klebsiella aerogenes. The experiment is described as follows: In vitro minimal inhibitory concentration (MIC) of compound against Enterobacter aerogenes 41003. It is filed as functional.
The test system of experiment [43] is Klebsiella aerogenes. The experiment is described as follows: In vitro minimal inhibitory concentration (MIC) of compound against Enterobacter aerogenes 41004. It is filed as functional.
For experiment [44], the system named is Enterobacter cloacae. The experiment is described as follows: In vitro minimal inhibitory concentration (MIC) of compound against Enterobacter cloacae E40002. In kind it is functional.
Experiment [45] deals with Escherichia coli. The experiment is described as follows: In vitro minimal inhibitory concentration (MIC) of compound against Escherichia coli TEM 3. It is filed as functional.
Experiment [46] has as its system Proteus vulgaris. The experiment can be described thus: In vitro minimal inhibitory concentration (MIC) of compound against Proteus vulgaris CT 106. In kind it is functional.
Experiment [47] concerns Klebsiella pneumoniae. The experiment is described as follows: In vitro minimal inhibitory concentration (MIC) of compound against Klebsiella pneumoniae CTX 1. In kind it is functional.

Each structure is given as a SMILES string. Converted amounts (≈) assume the structure as drawn. Bounds are passed on as bounds.

In the case of `CC(C)(O/N=C(\C(=O)NC1C(=O)N2C(C(=O)[O-])=C(C[n+]3ccccc3)CSC12)c1csc(N)n1)C(=O)O.CO/N=C/[C@@]1(C)[C@H](C(=O)[O-])N2C(=O)[C@@H]([C@@H](O)c3ccccc3)[C@H]2S1(=O)=O.[Na+]` (centres undefined), the MIC was 16 µg/mL in the experiment on Pseudomonas aeruginosa [1]; under 0.25 µg/mL in the experiment on Enterobacter cloacae [2]; 32 µg/mL against Pseudomonas aeruginosa [3]; 4 µg/mL in the experiment on Klebsiella aerogenes [4]; under 0.25 µg/mL with Enterobacter cloacae [5]; 1 µg/mL in the experiment on Morganella morganii [6]. Besides, the MIC with Morganella morganii [7] came out at 2 µg/mL.

Take `CCN1CCN(C(=O)NC(C(=O)N[C@@H]2C(=O)N3[C@@H]2SC(C)(C)[C@@H]3C(=O)O)c2ccccc2)C(=O)C1=O.C[C@]1(Cn2ccnn2)[C@H](C(=O)[O-])N2C(=O)CC2S1(=O)=O.[Na+]` (some centres undefined): the MIC in the experiment with Klebsiella aerogenes [8] came to 12.5 µg/mL; with Escherichia coli [9], 1.56 µg/mL; with Serratia marcescens, 0.78 µg/mL; with Citrobacter freundii [10], 0.78 µg/mL; with Klebsiella aerogenes [11], 100 µg/mL; with Escherichia coli [12], 3.13 µg/mL. The MIC in the experiment with Proteus vulgaris [13] was 1.56 µg/mL; in the experiment with Enterobacter cloacae [14] it was 6.25 µg/mL; in the experiment with Staphylococcus aureus [15] it was 0.39 µg/mL; with Escherichia coli [16] it was 1.56 µg/mL; with Morganella morganii [17], at most 0.2 µg/mL; with Enterobacter cloacae [18], 25 µg/mL. Moreover, the MIC was 6.25 µg/mL with Klebsiella pneumoniae [19]; 0.78 µg/mL with Staphylococcus aureus [20]; 200 µg/mL in the experiment on Citrobacter freundii [21]; 0.78 µg/mL with Escherichia coli [22]; at most 0.2 µg/mL in the experiment on Escherichia coli [23]; 50 µg/mL in the experiment with Enterobacter cloacae [24]. Also, the MIC in the experiment on Escherichia coli [25] worked out at 3.13 µg/mL; in the experiment with Pseudomonas aeruginosa [26] it was 12.5 µg/mL; with Klebsiella aerogenes [27], 12.5 µg/mL.

For `CC(C)(O/N=C(\C(=O)N[C@@H]1C(=O)N2C(C(=O)[O-])=C(C[n+]3ccccc3)CS[C@H]12)c1csc(N)n1)C(=O)O` [CEFTAZIDIME], the MIC in the experiment with Morganella morganii [28] is over 32 µg/mL; with Enterobacter cloacae [29], 100 µg/mL (≈ 183 µM); in the experiment on Morganella morganii [30], 25 µg/mL (≈ 45.7 µM); in the experiment on Morganella morganii [30] (Morganella morganii, read-out: MIC) it was over 32 µg/mL; with Enterobacter cloacae [31] it was 2 µg/mL (≈ 3.66 µM); with Citrobacter freundii [32], 400 µg/mL (≈ 732 µM). Moreover, the MIC was determined as 8 µg/mL (≈ 14.6 µM) against Klebsiella aerogenes [33]; 200 µg/mL (≈ 366 µM) against Klebsiella aerogenes [34]; 2 µg/mL (≈ 3.66 µM) in the experiment with Enterobacter cloacae [35]; 12.5 µg/mL (≈ 22.9 µM) in the experiment with Escherichia coli [36]; 25 µg/mL (≈ 45.7 µM) against Pseudomonas aeruginosa [37]; 16 µg/mL (≈ 29.3 µM) with Pseudomonas aeruginosa [38]. The MIC in the experiment with Pseudomonas aeruginosa [39] was 32 µg/mL (≈ 58.5 µM); in the experiment on Enterobacter cloacae [40] it was 25 µg/mL (≈ 45.7 µM); against Citrobacter freundii [41], 50 µg/mL (≈ 91.5 µM); in the experiment on Klebsiella aerogenes [42], 12.5 µg/mL (≈ 22.9 µM); against Klebsiella aerogenes [43], 12.5 µg/mL (≈ 22.9 µM); against Enterobacter cloacae [44], 200 µg/mL (≈ 366 µM). The MIC in the experiment on Escherichia coli [45] amounted to 25 µg/mL (≈ 45.7 µM); against Proteus vulgaris [46], 12.5 µg/mL (≈ 22.9 µM); with Klebsiella pneumoniae [47], 100 µg/mL (≈ 183 µM).
